Consider 35 compounds from patent US12485169B2, “Compounds” (GREY WOLF THERAPEUTICS LIMITED, priority 2018, dated 2025).

SMILES strings stand for the structures.

This assay deals with T1, Purified ERAP1 (37-941)-10His (ERAP1) (Homo sapiens, UniProt Q9NZ08).
T1 construct: Purified ERAP1 (37-941)-10His (ERAP1)
T1 sequence (Q9NZ08 37-941): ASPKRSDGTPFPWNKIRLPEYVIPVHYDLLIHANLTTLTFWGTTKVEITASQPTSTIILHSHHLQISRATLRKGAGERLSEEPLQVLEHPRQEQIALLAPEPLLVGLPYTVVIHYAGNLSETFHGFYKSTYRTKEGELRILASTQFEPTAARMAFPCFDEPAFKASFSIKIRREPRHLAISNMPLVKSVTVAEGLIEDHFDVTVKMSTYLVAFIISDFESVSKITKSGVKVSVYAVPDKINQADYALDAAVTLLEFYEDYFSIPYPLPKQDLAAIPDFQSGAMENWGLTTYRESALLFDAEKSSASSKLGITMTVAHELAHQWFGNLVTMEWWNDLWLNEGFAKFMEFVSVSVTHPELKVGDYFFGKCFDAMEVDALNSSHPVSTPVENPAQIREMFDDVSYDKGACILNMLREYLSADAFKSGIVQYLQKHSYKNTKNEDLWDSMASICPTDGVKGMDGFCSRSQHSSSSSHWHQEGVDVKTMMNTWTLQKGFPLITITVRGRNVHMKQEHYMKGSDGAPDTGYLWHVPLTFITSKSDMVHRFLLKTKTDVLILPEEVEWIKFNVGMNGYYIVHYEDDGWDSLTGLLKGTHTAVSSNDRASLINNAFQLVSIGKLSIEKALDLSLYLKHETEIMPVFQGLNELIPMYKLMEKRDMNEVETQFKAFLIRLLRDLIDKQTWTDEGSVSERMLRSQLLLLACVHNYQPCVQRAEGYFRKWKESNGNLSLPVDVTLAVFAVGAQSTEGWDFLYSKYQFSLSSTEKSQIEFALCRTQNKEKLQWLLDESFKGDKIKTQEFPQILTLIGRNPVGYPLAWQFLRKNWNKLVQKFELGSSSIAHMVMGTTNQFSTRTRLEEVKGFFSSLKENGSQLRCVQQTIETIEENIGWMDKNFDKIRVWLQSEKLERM
As to the kind of experiment: ERAP1 mediated hydrolysis of an amide substrate (10-mer inhibition assay), biochemical system. The conditions noted are these: 10-mer substrate, 23° C., 1 h, excitation 279 nm / emission 355 nm; read-out: IC50 vs Decapeptide WRVYEKC(Dnp)ALK-acid (where Dnp is Dinitrophenyl maleimide) (10-mer).
Regarding `COc1ccc(C(=O)O)cc1S(=O)(=O)Nc1cc(C(F)(F)F)ccc1N1CCCC[C@@H]1C` [Example 239, (S)-4-methoxy-3-(N-(2-(2-methylpiperidin-1-yl)-5-(trifluoromethyl)phenyl)sulfamoyl)benzoic acid], the IC50 was less than 500 nM. The result for `CCc1ccc(C(=O)O)cc1S(=O)(=O)Nc1cc(C(F)(F)F)ccc1N1CCCC[C@@H]1C` [Example 240, (S)-4-ethyl-3-(N-(2-(2-methylpiperidin-1-yl)-5-(trifluoromethyl)phenyl)sulfamoyl)benzoic acid] reads less than 500 nM; that for `CCc1ccc(C(=O)O)cc1S(=O)(=O)Nc1cc(S(C)(=O)=O)ccc1N1CCCCC1` [Example 241, 4-ethyl-3-(N-(5-(methylsulfonyl)-2-(piperidin-1-yl)phenyl)sulfamoyl)benzoic acid], less than 500 nM. The result for `CCc1ccc(C(=O)O)cc1S(=O)(=O)Nc1cc(-n2cnnn2)ccc1N1CCCCC1` [Example 242, 4-ethyl-3-(N-(2-(piperidin-1-yl)-5-(tetrazol-1-yl)phenyl)sulfamoyl)benzoic acid] reads less than 500 nM. The same measure for `COc1ccc(C(=O)O)cc1S(=O)(=O)Nc1cc(C(F)(F)F)ccc1N1CCC[C@@H](O)C1` [Example 243, I-3-(N-(2-(3-hydroxypiperidin-1-yl)-5-(trifluoromethyl)phenyl)sulfamoyl)-4-methoxybenzoic acid]: less than 500 nM; for `COc1ccc(C(=O)O)cc1S(=O)(=O)Nc1cc(C(F)(F)F)ccc1N1CCC[C@H](O)C1` [Example 244, (S)-3-(N-(2-(3-hydroxypiperidin-1-yl)-5-(trifluoromethyl)phenyl)sulfamoyl)-4-methoxybenzoic acid]: less than 500 nM. Regarding `COc1ccc(C(=O)O)cc1S(=O)(=O)Nc1cc(S(C)(=O)=O)ccc1N1CCC[C@@H](O)C1` [Example 245, I-3-(N-(2-(3-hydroxypiperidin-1-yl)-5-(methylsulfonyl)phenyl)sulfamoyl)-4-methoxybenzoic acid], the IC50 is less than 500 nM. In the case of `COc1ccc(C(=O)O)cc1S(=O)(=O)Nc1cc(S(C)(=O)=O)ccc1N1CCC[C@H](O)C1` [Example 246, (S)-3-(N-(2-(3-hydroxypiperidin-1-yl)-5-(methylsulfonyl)phenyl)sulfamoyl)-4-methoxybenzoic acid], the half-inhibitory concentration (IC50) was less than 500 nM. The result for `CCc1ccc(C(=O)O)cc1S(=O)(=O)Nc1cc(S(C)(=O)=O)ccc1N1CCC[C@H](O)C1` [Example 247, (S)-4-ethyl-3-(N-(2-(3-hydroxypiperidin-1-yl)-5-(methylsulfonyl)phenyl)sulfamoyl)benzoic acid] reads less than 500 nM; that for `COc1ccc(C(=O)O)cc1S(=O)(=O)Nc1cc(-n2cnnn2)ccc1N1CCC[C@@H](O)C1` [Example 248, I-3-(N-(2-(3-hydroxypiperidin-1-yl)-5-(tetrazol-1-yl)phenyl)sulfamoyl)-4-methoxybenzoic acid], less than 500 nM; that for `CCc1ccc(C(=O)O)cc1S(=O)(=O)Nc1cc(C(F)(F)F)ccc1N1CCC[C@@H](O)C1` [Example 249, I-4-ethyl-3-(N-(2-(3-hydroxypiperidin-1-yl)-5-(trifluoromethyl)phenyl)sulfamoyl)benzoic acid], less than 500 nM. As for `CCc1ccc(C(=O)O)cc1S(=O)(=O)Nc1cc(C(F)(F)F)ccc1N1CCC[C@H](O)C1` [Example 250, (S)-4-ethyl-3-(N-(2-(3-hydroxypiperidin-1-yl)-5-(trifluoromethyl)phenyl)sulfamoyl)benzoic acid], the IC50 is less than 500 nM. The same measure for `CCc1ccc(C(=O)O)cc1S(=O)(=O)Nc1cc(S(C)(=O)=O)ccc1N1CCC[C@@H](O)C1` [Example 251, I-4-ethyl-3-(N-(2-(3-hydroxypiperidin-1-yl)-5-(methylsulfonyl)phenyl)sulfamoyl)benzoic acid]: less than 500 nM. The result for `CCc1ccc(C(=O)O)cc1S(=O)(=O)Nc1cc(-n2cnnn2)ccc1N1CCC[C@@H](O)C1` [Example 252, I-4-ethyl-3-(N-(2-(3-hydroxypiperidin-1-yl)-5-(tetrazol-1-yl)phenyl)sulfamoyl)benzoic acid] reads less than 500 nM; that for `COc1ccc(C(=O)O)cc1S(=O)(=O)Nc1cc(-n2cnnn2)ccc1N1CCC[C@H](O)C1` [Example 253, (S)-3-(N-(2-(3-hydroxypiperidin-1-yl)-5-(tetrazol-1-yl)phenyl)sulfamoyl)-4-methoxybenzoic acid], less than 500 nM; that for `CCc1ccc(C(=O)O)cc1S(=O)(=O)Nc1cc(-n2cnnn2)ccc1N1CCC[C@H](O)C1` [Example 254, (S)-4-ethyl-3-(N-(2-(3-hydroxypiperidin-1-yl)-5-(tetrazol-1-yl)phenyl)sulfamoyl)benzoic acid], less than 500 nM.

Regarding `CCc1ccc(C(=O)O)cc1S(=O)(=O)Nc1cc(S(C)(=O)=O)ccc1N1CC(C)(O)C1` [Example 255, 4-ethyl-3-(N-(2-(3-hydroxy-3-methylazetidin-1-yl)-5-(methylsulfonyl)phenyl)sulfamoyl)benzoic acid], the IC50 is less than 5000 nM. The result for `CCc1ccc(C(=O)O)cc1S(=O)(=O)Nc1cc(-n2cnnn2)ccc1N1CC(C)(O)C1` [Example 257, 4-ethyl-3-(N-(2-(3-hydroxy-3-methylazetidin-1-yl)-5-(tetrazol-1-yl)phenyl)sulfamoyl)benzoic acid] reads less than 500 nM; that for `COc1ccc(C(=O)O)cc1S(=O)(=O)Nc1cc(C#N)ccc1N1CCC[C@@H](O)C1` [Example 258, I-3-(N-(5-cyano-2-(3-hydroxypiperidin-1-yl)phenyl)sulfamoyl)-4-methoxybenzoic acid], less than 500 nM; that for `COc1ccc(C(=O)O)cc1S(=O)(=O)Nc1cc(-c2nn[nH]n2)ccc1N1CCCCC1` [Example 259, 4-methoxy-3-(N-(2-(piperidin-1-yl)-5-(tetrazol-5-yl)phenyl)sulfamoyl)benzoic acid], less than 500 nM. The result for `CCc1ccc(C(=O)O)cc1S(=O)(=O)Nc1cc(C#N)ccc1N1CCC[C@@H](O)C1` [Example 260, I-3-(N-(5-cyano-2-(3-hydroxypiperidin-1-yl)phenyl)sulfamoyl)-4-ethylbenzoic acid] reads less than 500 nM; that for `CCc1ccc(C(=O)O)cc1S(=O)(=O)Nc1cc(-c2nn[nH]n2)ccc1N1CCCCC1` [Example 261, 4-ethyl-3-(N-(2-(piperidin-1-yl)-5-(tetrazol-5-yl)phenyl)sulfamoyl)benzoic acid], less than 500 nM. The result for `CCc1ccc(C(=O)O)cc1S(=O)(=O)Nc1cc(S(C)(=O)=O)ccc1N1CCC[C@@H](F)C1` [Example 262, I-4-ethyl-3-(N-(2-(3-fluoropiperidin-1-yl)-5-(methylsulfonyl)phenyl)sulfamoyl)benzoic acid] reads less than 500 nM; that for `CCc1ccc(C(=O)O)cc1S(=O)(=O)Nc1cc(C#N)ccc1N1CCC[C@H](O)C1` [Example 263, (S)-3-(N-(5-cyano-2-(3-hydroxypiperidin-1-yl)phenyl)sulfamoyl)-4-ethylbenzoic acid], less than 500 nM. Take `COc1ccc(C(=O)O)cc1S(=O)(=O)Nc1cc(C#N)ccc1N1CCC[C@H](O)C1` [Example 264, (S)-3-(N-(5-cyano-2-(3-hydroxypiperidin-1-yl)phenyl)sulfamoyl)-4-methoxybenzoic acid]: the 50% inhibitory concentration (IC50) was less than 500 nM. The same measure for `COc1ccc(C(=O)O)cc1S(=O)(=O)Nc1cc(-n2cnnn2)ccc1N1CCC[C@@H](F)C1` [Example 265, I-3-(N-(2-(3-fluoropiperidin-1-yl)-5-(tetrazol-1-yl)phenyl)sulfamoyl)-4-methoxybenzoic acid]: less than 500 nM; for `CCc1ccc(C(=O)O)cc1S(=O)(=O)Nc1cc(-n2cnnn2)ccc1N1CCC[C@@H](F)C1` [Example 266, I-4-ethyl-3-(N-(2-(3-fluoropiperidin-1-yl)-5-(tetrazol-1-yl)phenyl)sulfamoyl)benzoic acid]: less than 500 nM. The result for `O=C(O)c1ccc(C2CC2)c(S(=O)(=O)Nc2cc(C(F)(F)F)ccc2N2CCCCC2)c1` [Example 267, 4-cyclopropyl-3-(N-(2-(piperidin-1-yl)-5-(trifluoromethyl)phenyl)sulfamoyl)benzoic acid] reads less than 500 nM. The result for `CCCCc1ccc(C(=O)O)cc1S(=O)(=O)Nc1cc(C(F)(F)F)ccc1N1CCCCC1` [Example 268, 4-butyl-3-(N-(2-(piperidin-1-yl)-5-(trifluoromethyl)phenyl)sulfamoyl)benzoic acid] reads less than 500 nM.

`COc1ccc(C(=O)O)cc1S(=O)(=O)Nc1cc(S(C)(=O)=O)ccc1N1CCC[C@@H](F)C1` [Example 269, I-3-(N-(2-(3-fluoropiperidin-1-yl)-5-(methylsulfonyl)phenyl)sulfamoyl)-4-methoxybenzoic acid]: the half-inhibitory concentration (IC50) was less than 500 nM. As to `CCc1ccc(C(=O)O)cc1S(=O)(=O)Nc1cc(C(F)(F)F)ccc1N1CC(C)(O)C1` [Example 270, 4-ethyl-3-(N-(2-(3-hydroxy-3-methylazetidin-1-yl)-5-(trifluoromethyl)phenyl)sulfamoyl)benzoic acid], the half-maximal inhibitory concentration (IC50) was less than 5000 nM. The same measure for `O=C(O)c1ccc(-n2cccn2)c(S(=O)(=O)Nc2cc(C(F)(F)F)ccc2N2CCCCC2)c1` [Example 271, 3-(N-(2-(piperidin-1-yl)-5-(trifluoromethyl)phenyl)sulfamoyl)-4-(pyrazol-1-yl)benzoic acid]: less than 5000 nM; for `O=C(O)c1ccc(C2CCO2)c(S(=O)(=O)Nc2cc(C(F)(F)F)ccc2N2CCCCC2)c1` (centres unmarked) [Example 272, 4-(oxetan-2-yl)-3-(N-(2-(piperidin-1-yl)-5-(trifluoromethyl)phenyl)sulfamoyl)benzoic acid]: less than 500 nM.

Turning to `CCc1ccc(C(=O)O)cc1S(=O)(=O)Nc1cc(-c2cn(C)nn2)ccc1N1CCCCC1` [Example 273, 4-ethyl-3-(N-(5-(1-methyl-1,2,3-triazol-4-yl)-2-(piperidin-1-yl)phenyl)sulfamoyl)benzoic acid], the half-inhibitory concentration (IC50) is less than 500 nM. The result for `CCc1ccc(C(=O)O)cc1S(=O)(=O)Nc1cc(-c2cnnn2C)ccc1N1CCCCC1` [Example 274, 4-ethyl-3-(N-(5-(1-methyl-1,2,3-triazol-5-yl)-2-(piperidin-1-yl)phenyl)sulfamoyl)benzoic acid] reads less than 500 nM.

Usually IC50 stands for the concentration that gives 50% inhibition.
